Experiment [1] concerns Colo320DM. Kind of experiment: Colo320DM cell viability. The class given is cell-based, human. An excerpt: In some embodiments, a polypeptide described herein inhibits binding of BLC9 to β-catenin when assessed in a cell-viability assay. In some embodiments, the cell-viability assay is a CellTiterGlo luminescent assay, wherein the viability of cells is quantitatively measured. Various cell lines, transformed cell lines or primary cells derived from a healthy subject or subject suffering from a disease can be used in this assay.

Experiment [2] relates to LEF-TCF-bla HCT116 cells. Put plainly: Wnt reporter assay: Wnt/Beta-Catenin-LEF-TCF-bla HCT116 inhibitor screen, constitutively activated. The experiment is classed as cell-based. The note with it: 5 hours incubation with compound. An excerpt: In various embodiments, a polypeptide described herein inhibits binding of BCL9 to β-catenin when assessed in a Wnt transcription assay. In some embodiments, the Wnt transcription assay is a cell-based assay. In some embodiments, the cell-based Wnt transcription assay is a GeneBLAzer® beta-lactamase (bla) reporter assay. Various cell lines, transformed cell lines or primary cells derived from a healthy subject or subject suffering from a disease can be used in this assay. A cell line known to be dependent on canonical Wnt/β-catenin signaling for its survival may also be used. In some embodiments, CellSensor™ LEF/TCF-bla HCT-116 cells are used in this reporter assay. These cells contain a beta-lactamase (BLA) reporter gene under the control of a 0-catenin/LEF/TCF response element stably integrated into HCT-116 cells. As the cells constitutively express beta-lactamase, adding a polypeptide that inhibits binding of BCL9 to β-catenin in this assay leads to reduced production of beta-lactamase. The efficiency of the polypeptide in suppressing Wnt transcription can therefore be quantitatively calculated in this assay. In some embodiments, a polypeptide described herein suppresses the Wnt transcription as measured in a GeneBLAzer® beta-lactamase (bla) reporter assay, which is indicative of the ability of the polypeptide to inhibit binding of BCL9 to β-catenin.
Wnt/Beta-Catenin-LEF-TCF-bla HCT116-Inhibitor Screen, Constitutively Activated. LEF-TCF-bla HCT116 cells are thawed and prepared as described above for the Activator Screen. 32 μL of cell suspension is added to each well of a 384-well Poly-D-Lysine assay plate. Cells in Assay Media are incubated for 16-24 hours in the plate at 37° C./5% CO2 in a humidified incubator. 4 μL of a 10× serial dilution of ICG-001 (control inhibitor starting concentration, 25,000 nM) or compounds are added to appropriate wells of the plate. 4 μL of Assay Media is added to all wells to bring the final assay volume to 40 μL. The plate is incubated for 5 hours at 37° C./5% CO2 in a humidified incubator. 8 μL of 1 μM Substrate Loading Solution is added to each well and the plate is incubated for 2 hours at room temperature. The plate is read on a fluorescence plate reader.

A word on the IC50: it is the concentration that gives 50% inhibition.

Where a SMILES comes first, the peptide text is derived from it. Bridges are numbered along the chain shown (N, C = ends). [ ]: non-standard residue; d: D form. 2Nal = N[C@@H](Cc1ccc2ccccc2c1)C(=O)O; Ala(cPr) = N[C@@H](CC1CC1)C(=O)O; tBuAla = CC(C)(C)C[C@H](N)C(=O)O; NMeE = CN[C@@H](CCC(=O)O)C(=O)O; NMeQ = CN[C@@H](CCC(N)=O)C(=O)O; Cha = N[C@@H](CC1CCCCC1)C(=O)O; Cba = N[C@@H](CC1CCC1)C(=O)O; Tle = CC(C)(C)[C@H](N)C(=O)O; S5 = C=CCCC[C@](C)(N)C(=O)O; Ac6c = NC1(C(=O)O)CCCCC1

On to `CC[C@H](C)[C@@H]1NC(=O)[C@@](C)(NC(=O)[C@H](CCCNC(=N)N)NC(=O)[C@H](CC(C)C)NC(=O)[C@@H](NC(=O)[C@H](CCC(N)=O)N(C)C(=O)[C@H](CC(C)C)NC(C)=O)[C@@H](C)O)CCCC=CCCC[C@@](C)(C(=O)N[C@@H](CC2CCC2)C(=O)N[C@@H](Cc2ccc3ccccc3c2)C(N)=O)NC(=O)[C@H](CCCNC(=N)N)NC(=O)[C@H](CCC(N)=O)NC1=O` [SEQ ID NO: 108, L(N-methylQ)TLRXIQRX(CBA)(2-Nal)] (Ac-L[NMeQ]TLR[S5]IQR[S5][Cba][2Nal]-NH2; staple 6-10), for which the IC50 in experiment [1] was determined as 3100 nM; in experiment [2], 3160 nM.

With `CC[C@H](C)[C@@H]1NC(=O)[C@@](C)(NC(=O)[C@H](CCCNC(=N)N)NC(=O)[C@H](CC(C)C)NC(=O)[C@@H](NC(=O)[C@H](CCC(N)=O)N(C)C(=O)[C@H](CC(C)C)NC(=O)[C@H](CO)NC(=O)[C@H](CCCNC(=N)N)NC(=O)[C@H](CCC(=O)O)N(C)C(=O)[C@H](CCCNC(=N)N)NC(=O)[C@H](Cc2c[nH]cn2)NC(C)=O)[C@@H](C)O)CCCC=CCCC[C@@](C)(C(=O)N[C@@H](CC2CCC2)C(=O)N[C@@H](Cc2ccc3ccccc3c2)C(N)=O)NC(=O)[C@H](CCCNC(=N)N)NC(=O)[C@H](CCC(N)=O)NC1=O` [SEQ ID NO: 154, HR(N-methylE)RSL(N-methylQ)TLRXIQRX(CBA)(2-Nal)] (Ac-HR[NMeE]RSL[NMeQ]TLR[S5]IQR[S5][Cba][2Nal]-NH2; staple 11-15), the results for the IC50 in experiment [1] and in experiment [2] were 1910 nM and 2260 nM, respectively.

As for `CC[C@H](C)[C@@H]1NC(=O)[C@@](C)(NC(=O)[C@H](CCCNC(=N)N)NC(=O)[C@H](CC(C)C)NC(=O)[C@@H](NC(=O)[C@H](CCC(N)=O)NC(=O)[C@H](CC(C)C)NC(=O)[C@H](CO)NC(=O)[C@H](CCCNC(=N)N)NC(=O)[C@H](CCC(N)=O)NC(=O)[C@H](CCCNC(=N)N)NC(=O)[C@H](Cc2c[nH]cn2)NC(C)=O)[C@@H](C)O)CCCC=CCCC[C@@](C)(C(=O)N[C@@H](CC2CC2)C(=O)N[C@@H](Cc2ccc3ccccc3c2)C(N)=O)NC(=O)[C@H](CCCNC(=N)N)NC(=O)[C@H](CCC(N)=O)NC1=O` [SEQ ID NO: 162, HRQRSLQTLRXIQRX(Cpa)(2-Nal)] (Ac-HRQRSLQTLR[S5]IQR[S5][Ala(cPr)][2Nal]-NH2; staple 11-15), the IC50 stood at 4190 nM in experiment [1] and 7050 nM in experiment [2].

Take `CC[C@H](C)[C@@H]1NC(=O)[C@@](C)(NC(=O)[C@H](CCCNC(=N)N)NC(=O)[C@H](CC2CCCCC2)NC(=O)[C@@H](NC(=O)[C@H](CCC(N)=O)N(C)C(=O)[C@H](CC(C)C)NC(=O)[C@H](CO)NC(=O)[C@H](CCCNC(=N)N)NC(=O)[C@H](CCC(N)=O)N(C)C(=O)[C@H](CCCNC(=N)N)NC(=O)[C@H](Cc2c[nH]cn2)NC(C)=O)[C@@H](C)O)CCCC=CCCC[C@@](C)(C(=O)N[C@@H](CC2CCC2)C(=O)N[C@@H](Cc2ccc3ccccc3c2)C(N)=O)NC(=O)[C@H](CCCNC(=N)N)NC(=O)[C@H](CCC(N)=O)NC1=O` [SEQ ID NO: 163, HR(N-methylQ)RSL(N-methylQ)T(Cha)RXIQRX(CBA)(2-Nal)] (Ac-HR[NMeQ]RSL[NMeQ]T[Cha]R[S5]IQR[S5][Cba][2Nal]-NH2; staple 11-15; N-terminus and C-terminus assumed): the values for the concentration for half-maximal inhibition (IC50) in experiment [1] and in experiment [2] were 2390 nM and 4430 nM, respectively.

As for `CC[C@H](C)[C@@H]1NC(=O)[C@@](C)(NC(=O)[C@H](CCCNC(=N)N)NC(=O)[C@H](CC(C)C)NC(=O)[C@@H](NC(=O)[C@H](CCC(N)=O)NC(=O)[C@H](CC(C)C)NC(=O)[C@H](CO)NC(=O)[C@H](CCCNC(=N)N)NC(=O)[C@H](CCC(N)=O)NC(=O)[C@H](CCCNC(=N)N)NC(=O)[C@H](Cc2c[nH]cn2)NC(C)=O)[C@@H](C)O)CCCC=CCCC[C@@](C)(C(=O)NC2(C(=O)N[C@@H](Cc3ccc4ccccc4c3)C(N)=O)CCCCC2)NC(=O)[C@H](CCCNC(=N)N)NC(=O)[C@H](CCC(N)=O)NC1=O` [SEQ ID NO: 177, HRQRSLQTLRXIQRX(A6C)(2-Nal)] (Ac-HRQRSLQTLR[S5]IQR[S5][Ac6c][2Nal]-NH2; staple 11-15), the IC50 came out at 2670 nM in experiment [1] and 4450 nM in experiment [2].

In the case of `CC[C@H](C)[C@@H]1NC(=O)[C@@](C)(NC(=O)[C@H](CCCNC(=N)N)NC(=O)[C@H](CC(C)C)NC(=O)[C@@H](NC(=O)[C@H](CCC(N)=O)NC(=O)[C@H](CC(C)C)NC(=O)[C@H](CO)NC(=O)[C@H](CCCNC(=N)N)NC(=O)[C@H](CCC(N)=O)NC(=O)[C@H](CCCNC(=N)N)NC(=O)[C@H](Cc2c[nH]cn2)NC(C)=O)[C@@H](C)O)CCCC=CCCC[C@@](C)(C(=O)N[C@@H](CC2CCCCC2)C(=O)N[C@@H](Cc2ccc3ccccc3c2)C(N)=O)NC(=O)[C@H](CCCNC(=N)N)NC(=O)[C@H](CCC(N)=O)NC1=O` [SEQ ID NO: 180, HRQRSLQTLRXIQRX(Cha)(2-Nal)] (Ac-HRQRSLQTLR[S5]IQR[S5][Cha][2Nal]-NH2; staple 11-15), the IC50 in experiment [1] was 1880 nM; in experiment [2], 2210 nM.

`CC[C@H](C)[C@@H]1NC(=O)[C@@](C)(NC(=O)[C@H](CCCNC(=N)N)NC(=O)[C@H](CC(C)C)NC(=O)[C@@H](NC(=O)[C@H](CCC(N)=O)NC(=O)[C@H](CC(C)C)NC(=O)[C@H](CO)NC(=O)[C@H](CCCNC(=N)N)NC(=O)[C@H](CCC(N)=O)NC(=O)[C@H](CCCNC(=N)N)NC(=O)[C@H](Cc2c[nH]cn2)NC(C)=O)[C@@H](C)O)CCCC=CCCC[C@@](C)(C(=O)N[C@@H](CC(C)(C)C)C(=O)N[C@@H](Cc2ccc3ccccc3c2)C(N)=O)NC(=O)[C@H](CCCNC(=N)N)NC(=O)[C@H](CCC(N)=O)NC1=O` [SEQ ID NO: 191, HRQRSLQTLRXIQRX(β-tBu-Ala)(2-Nal)] (Ac-HRQRSLQTLR[S5]IQR[S5][tBuAla][2Nal]-NH2; staple 11-15) registered an IC50 in experiment [1] of 2870 nM.

As to `CC[C@H](C)[C@@H]1NC(=O)[C@@](C)(NC(=O)[C@H](CCCNC(=N)N)NC(=O)[C@H](CC(C)C)NC(=O)[C@@H](NC(=O)[C@H](CCC(N)=O)NC(=O)[C@H](CC(C)C)NC(=O)[C@H](CO)NC(=O)[C@H](CCCNC(=N)N)NC(=O)[C@H](CCC(N)=O)NC(=O)[C@H](CCCNC(=N)N)NC(=O)[C@H](Cc2c[nH]cn2)NC(C)=O)[C@@H](C)O)CCCC=CCCC[C@@](C)(C(=O)N[C@H](C(=O)N[C@@H](Cc2ccc3ccccc3c2)C(N)=O)C(C)(C)C)NC(=O)[C@H](CCCNC(=N)N)NC(=O)[C@H](CCC(N)=O)NC1=O` [SEQ ID NO: 192, HRQRSLQTLRXIQRX(Tle)(2-Nal)] (Ac-HRQRSLQTLR[S5]IQR[S5][Tle][2Nal]-NH2; staple 11-15), the IC50 in experiment [1] was 2590 nM.

For `CC[C@H](C)[C@@H]1NC(=O)[C@@](C)(NC(=O)[C@H](CCCNC(=N)N)NC(=O)[C@H](CC(C)C)NC(=O)[C@@H](NC(=O)[C@H](CCC(N)=O)NC(=O)[C@H](CC(C)C)NC(=O)[C@H](CO)NC(=O)[C@H](CCCNC(=N)N)NC(=O)[C@H](CCC(N)=O)N(C)C(=O)[C@H](CCCNC(=N)N)NC(=O)[C@H](Cc2c[nH]cn2)NC(C)=O)[C@@H](C)O)CCCC=CCCC[C@@](C)(C(=O)N[C@@H](CC(C)(C)C)C(=O)N[C@@H](Cc2ccc3ccccc3c2)C(N)=O)NC(=O)[C@H](CCCNC(=N)N)NC(=O)[C@H](CCC(N)=O)NC1=O` [SEQ ID NO: 193, HR(N-MeGln)RSLQTLRXIQRX(β-tBu-Ala)(2-Nal)] (Ac-HR[NMeQ]RSLQTLR[S5]IQR[S5][tBuAla][2Nal]-NH2; staple 11-15), in experiment [1], the half-maximal inhibitory concentration (IC50) came to 2670 nM.

As to `CC[C@H](C)[C@@H]1NC(=O)[C@@](C)(NC(=O)[C@H](CCCNC(=N)N)NC(=O)[C@H](CC(C)C)NC(=O)[C@@H](NC(=O)[C@H](CCC(N)=O)NC(=O)[C@H](CC(C)C)NC(=O)[C@H](CO)NC(=O)[C@H](CCCNC(=N)N)NC(=O)[C@H](CCC(N)=O)N(C)C(=O)[C@H](CCCNC(=N)N)NC(=O)[C@H](Cc2c[nH]cn2)NC(C)=O)[C@@H](C)O)CCCC=CCCC[C@@](C)(C(=O)N[C@H](C(=O)N[C@@H](Cc2ccc3ccccc3c2)C(N)=O)C(C)(C)C)NC(=O)[C@H](CCCNC(=N)N)NC(=O)[C@H](CCC(N)=O)NC1=O` [SEQ ID NO: 194, HR(N-MeGln)RSLQTLRXIQRX(Tle)(2-Nal)] (Ac-HR[NMeQ]RSLQTLR[S5]IQR[S5][Tle][2Nal]-NH2; staple 11-15), it took 3750 nM to reach half-maximal inhibition in experiment [1] (IC50).
